Measured values taken from PubChem BioAssay (NCI).
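These data come from cells grown in 96-well plates and exposed to compound for 48 hours at five concentrations. GI50 marks 50% less growth. At the TGI there is no net growth.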

Columns and labels:
Experiment in all cases: NCI anticancer screen, dose series, 48 h
RPMI-8226 leukemia = tested on: RPMI-8226 leukemia
MDA-MB-231 breast = tested on: MDA-MB-231 breast
HOP-62 NSCLC = tested on: HOP-62 NSCLC
PC-3 prostate = tested on: PC-3 prostate
HCT-116 colon = tested on: HCT-116 colon
HS 578T breast = tested on: HS 578T breast
A498 renal = tested on: A498 renal
COLO 205 colon = tested on: COLO 205 colon
DMS 273 small cell lung = tested on: DMS 273 small cell lung

| Compound | GI50 (RPMI-8226 leukemia) | TGI (RPMI-8226 leukemia) | GI50 (MDA-MB-231 breast) | TGI (MDA-MB-231 breast) | GI50 (HOP-62 NSCLC) | TGI (HOP-62 NSCLC) | GI50 (PC-3 prostate) | TGI (PC-3 prostate) | GI50 (HCT-116 colon) | TGI (HCT-116 colon) | GI50 (HS 578T breast) | TGI (HS 578T breast) | GI50 (A498 renal) | TGI (A498 renal) | GI50 (COLO 205 colon) | TGI (COLO 205 colon) | TGI (DMS 273 small cell lung) |
| --- | --- | --- | --- | --- | --- | --- | --- | --- | --- | --- | --- | --- | --- | --- | --- | --- | --- |
| O=C(Nc1nc2ccccc2s1)Nc1ccc([N+](=O)[O-])cc1Cl | 2.19 µM | > 21 µM | 3.21 µM | 8.59 µM | 7.61 µM | 16.6 µM | 4.26 µM | > 28.8 µM | 2.12 µM | 4.54 µM | 3.98 µM | > 20.8 µM | 5.15 µM | 12.5 µM | 10.3 µM | 32.9 µM | – |
| N#CC1c2ccccc2C=CN1C(=O)N(c1ccccc1)c1ccccc1 (centres undefined) | 2.56 µM | 6.87 µM | 2.94 µM | 8.35 µM | 13.6 µM | 26.7 µM | 9.82 µM | 25.3 µM | 2.05 µM | 4.35 µM | 3.14 µM | 13.7 µM | 7.14 µM | 24.4 µM | 1.83 µM | 3.43 µM | – |
| CCN1CCN(C(=O)[C@]23CCC(C)(C)C[C@@H]2C2=CC[C@@H]4[C@@]5(C)C/C(=C/c6ccncc6)C(=O)C(C)(C)[C@@H]5CC[C@@]4(C)[C@]2(C)CC3)CC1 | 1.25 µM | 4.64 µM | 1.63 µM | 3.16 µM | 1.72 µM | 3.3 µM | 0.833 µM | 2.2 µM | 1.35 µM | 2.87 µM | 1.58 µM | 4.16 µM | 1.7 µM | 3.1 µM | 1.64 µM | 3.64 µM | – |
| CN1C(=O)C2(c3ccccc31)N(c1ccc(Cl)cc1)C(=O)C2(c1ccccc1)c1ccccc1 (centres undefined) | 6.25 µM | > 100 µM | 13.4 µM | > 100 µM | > 100 µM | > 100 µM | 5.63 µM | > 100 µM | 9.57 µM | > 100 µM | 21.4 µM | > 100 µM | 34.3 µM | > 100 µM | 37.6 µM | > 100 µM | – |
| CN(Cc1cnc2nc(N)nc(N)c2n1)c1ccc(C(=O)NC(CCC(=O)O)C(=O)O)cc1Br (centres undefined) | < 0.01 µM | > 100 µM | 6.02 µM | > 100 µM | < 0.01 µM | – | < 0.01 µM | > 100 µM | < 0.01 µM | 2.42 µM | 1.1 µM | 6.39 µM | < 0.01 µM | 4.71 µM | < 0.0215 µM | 17.4 µM | – |
| C=CC(=O)N1CC2(CC(n3nc(-c4ccc5c(cnn5C)c4)c(-c4c(Cl)c(C)cc5[nH]ncc45)c3C)C2)C1 | 2.13 µM | 6.72 µM | 2.54 µM | 6.62 µM | – | 19.5 µM | 3.59 µM | 22.8 µM | 1.83 µM | 3.74 µM | 5.56 µM | 62.9 µM | 3.99 µM | 13.3 µM | 2.1 µM | 4.17 µM | – |
| O=C1NC(=NCCCc2ccccc2)S/C1=C\c1ccc2ncccc2c1 | 5.52 µM | 14.6 µM | 8.12 µM | > 22.5 µM | 5.79 µM | 13.8 µM | 5.62 µM | 15.9 µM | 3.6 µM | 14.1 µM | 5.11 µM | 16 µM | 3.81 µM | 8.09 µM | 6.98 µM | > 20.7 µM | – |
| c1ccc2c3c([nH]c2c1)C(c1ccc(C2NCCc4c2[nH]c2ccccc42)cc1)NCC3 (centres undefined) | 0.34 µM | 1.09 µM | 0.296 µM | 0.936 µM | 1.31 µM | 2.8 µM | 1.27 µM | 2.69 µM | 0.17 µM | 0.335 µM | 1.43 µM | 3.82 µM | 1.64 µM | 8.87 µM | 0.204 µM | 0.459 µM | – |
| CCOC(=O)c1cnc2c(C)cccc2c1Nc1ccc(C(C)=O)cc1 | 30.9 µM | > 100 µM | 19.7 µM | > 100 µM | 39.7 µM | > 100 µM | 36.6 µM | > 100 µM | 14.2 µM | > 100 µM | 15.4 µM | 58.4 µM | 11.9 µM | 63.4 µM | 17.5 µM | 43.4 µM | – |
| CCSc1c2ccccc2c(-c2nc(F)nc(F)n2)n1CCc1ccccc1 | – | > 100 µM | – | – | – | > 100 µM | – | – | – | > 100 µM | – | – | – | > 100 µM | – | > 100 µM | > 100 µM |
| CC[n+]1c(/C=C/C=C2\N(C)c3ccccc3C2(C)C)sc2ccccc21 | 2.99 µM | 10.1 µM | 4.5 µM | 10.3 µM | 4.47 µM | 9.31 µM | 4.29 µM | 11.3 µM | 4.15 µM | 8.16 µM | 5.63 µM | 20.1 µM | 5.04 µM | 12 µM | 4.47 µM | 9.13 µM | – |
